ChEMBL document CHEMBL3137667, “[Drug-induced liver injury; fourteenth updated edition of the bibliographic database of liver injuries and related drugs]” (Gastroenterol Clin Biol, 2004)

Assays:
[1] = Highest frequency of moderate liver toxicity observed during clinical trials, expressed as a percentage. [column '% BIOL' in source]; conditions: human
[2] = Highest frequency of acute liver toxicity observed during clinical trials, expressed as a percentage. [column '% AIGUE' in source]; conditions: human
[3] = Presence of at least one case with successful reintroduction. [column 'REINT' in source]; conditions: human
[4] = Comments (NB not yet translated). [column 'COMMENTAIRES' in source]; conditions: human
[5] = Times to onset, minimal and maximal, observed in the indexed observations. [column 'DELAI' in source]; conditions: human
[6] = Proposed mechanism(s) of liver damage. [column 'MEC' in source]; conditions: human
[7] = human, serum
[8] = human, serum; remark: listed apart in the source
[9] = human
[10] = human; remark: listed apart in the source
[11] = human; remark: listed apart in the source
[12] = human, serum, 4383 h
[13] = human; remark: listed apart in the source
[14] = human; remark: listed apart in the source
[15] = human; remark: listed apart in the source
[16] = human; remark: listed apart in the source
[17] = human; remark: listed apart in the source
[18] = human; remark: listed apart in the source
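Throughout, for Hepatotoxicity (association with vascular disease): count of indexed literature references reporting vascular liver injury in humans, e.g. peliosis hepatitis, hepatic veno-occlusive disease or Budd-Chiari syndrome.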
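Throughout, for Hepatotoxicity (benign tumour): value is a count of indexed literature references citing a benign tumour confirmed by histopathology.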
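Throughout, for Hepatotoxicity (choleostasis): human cholestatic liver injury, shown by histopathology or by peak ALT or AST elevation over alkaline phosphatase ratio below 2, value counts indexed literature reports.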
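Throughout, for Hepatotoxicity (chronic liver disease): chronic liver injury confirmed by histopathology or persistently raised serum aminotransferase activity beyond 6 months, value given as the count of indexed literature references.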
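Throughout, for Hepatotoxicity (cirrhosis): value is a count of indexed literature references reporting cirrhosis confirmed by histopathology.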
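Throughout, for Hepatotoxicity (cytolytic): human cytolytic liver injury, shown by histopathology or by a ratio above 5 of peak ALT or AST elevation to alkaline phosphatase elevation, value counts indexed references.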
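Throughout, for Hepatotoxicity (granulomatous hepatitis): value is a count of indexed literature references reporting granulomatous liver disease confirmed by histopathology.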
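Throughout, for Hepatotoxicity (malignant tumour): malignant tumour confirmed by histopathology, value gives the count of indexed literature references reporting it.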
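Throughout, for Hepatotoxicity (severe hepatitis): human clinical data: severe hepatitis, meaning potentially life-threatening liver failure or clinically observed cases, the value counts how many indexed literature references report it.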
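Throughout, for Hepatotoxicity (steatosis): steatosis confirmed by histopathology, value is the count of indexed references.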

Row | Compound | Hepatotoxicity (moderate) [1] [%] | Hepatotoxicity (acute) [2] [%] | Hepatotoxicity (successful reintroduction) [3] | Hepatotoxicity (comment) [4] | Hepatotoxicity (time to onset) [5] | Hepatotoxicity (mechanism) [6] | Hepatotoxicity (moderate) [7] | Hepatotoxicity (acute) [8] | Hepatotoxicity (cytolytic) [9] | Hepatotoxicity (choleostasis) [10] | Hepatotoxicity (severe hepatitis) [11] | Hepatotoxicity (chronic liver disease) [12] | Hepatotoxicity (cirrhosis) [13] | Hepatotoxicity (granulomatous hepatitis) [14] | Hepatotoxicity (association with vascular disease) [15] | Hepatotoxicity (steatosis) [16] | Hepatotoxicity (malignant tumour) [17] | Hepatotoxicity (benign tumour) [18] | other results
1 | CCOC(=O)NNc1nncc2ccccc12 [TODRALAZINE] | 0 | 0 | yes | AC_ANTI-N/-MF | 11 days - 2 years | Allergic | 0 | 3 | 3 | 0 | 2 | 0 | 0 | 0 | 0 | 0 | 0 | 0 | 
2 | INTERFERON BETA | 100 | 31.2 | yes | AC_ANTI-N/-ML | 3 days - 2 years | Allergic, Dose-dependant | 33 | 10 | 5 | 0 | 1 | 0 | 0 | 0 | 0 | 0 | 0 | 0 | 
3 | CC[C@H]1[C@@H]2C[C@H]3[C@@H]4N(C)c5ccccc5[C@]45C[C@@H]([C@@H]2[C@H]5O)N3[C@@H]1O [AJMALINE] | 0 | 0.1 | yes | CHOLESTASE_PROLONGEE RC/AMIODARONE | 1 day - 4 years | Allergic | 2 | 29 | 6 | 28 | 0 | 1 | 1 | 0 | 0 | 0 | 0 | 0 | 
4 | NNc1nnc(NN)c2ccccc12 [DIHYDRALAZINE] | 0 | 0.1 | yes | AC_ANTI-MF/-M/-N/-CYP1A2 | 2 days - 3 years | Allergic | 0 | 21 | 17 | 5 | 1 | 4 | 0 | 0 | 0 | 1 | 0 | 0 | 
5 | CCC[N+]12[C@H](O)[C@@H](CC)[C@@H]3C[C@H]1[C@@H]1N(C)c4ccccc4[C@]14C[C@H]2C3[C@H]4O (stereo partly specified) | 0 | 0 | yes | RC/QUINIDINE CHOLESTASE_PROLONGEE CHOLANGITE | 3 days - 4 months | Allergic | 0 | 15 | 3 | 14 | 0 | 2 | 0 | 2 | 0 | 0 | 0 | 0 | 
6 | CN1CCN2c3ccccc3Cc3ccccc3C2C1 (stereo unspecified) [MIANSERIN] | 26 | 0 | yes | RC/NOMIFENSINE | 1 day - 1.8 years | Dose-dependant, Reactive metabolite | 3 | 5 | 3 | 5 | 0 | 0 | 0 | 0 | 0 | 0 | 0 | 0 | 
7 | Nc1ccc(S(=O)(=O)c2ccc(N)cc2)cc1 [DAPSONE] |  |  | yes | DUCTOPENIE | 1 week - 1.5 years |  | 10 | 33 |  |  |  | 0 | 0 |  | 0 | 0 | 0 | 0 | Hepatotoxicity (moderate) ([1]; Liver): 20%; Hepatotoxicity (acute) ([2]; Liver): 5%; Hepatotoxicity (mechanism) ([6]; Liver): Allergic, Dose-dependant; Hepatotoxicity (cytolytic) ([9]; Liver): 15; Hepatotoxicity (choleostasis) ([10]; Liver): 13; Hepatotoxicity (severe hepatitis) ([11]; Liver): 6; Hepatotoxicity (granulomatous hepatitis) ([14]; Liver): 3
8 | Cc1cn([C@H]2C=C[C@@H](CO)O2)c(=O)[nH]c1=O [STAVUDINE] | 65.6 | 17.1 | yes | REACTIVATION_HVB/HVC | 6 days - 5 years | Dose-dependant, Mitochondrial toxicity, Toxic | 13 | 29 | 22 | 5 | 14 | 0 | 0 | 0 | 0 | 25 | 0 | 0 | 
9 | CCCNC(=O)NS(=O)(=O)c1ccc(Cl)cc1 [CHLORPROPAMIDE] | 25 | 0.5 | yes | RC/TOLBUTAMIDE/TOLAZAMIDE #CBP | 2 weeks - 2 years | Allergic, Dose-dependant | 3 | 34 | 9 | 29 | 1 | 0 | 0 | 4 | 0 | 0 | 0 | 0 | 
10 | Nc1ccn([C@@H]2O[C@H](CO)[C@@H](O)[C@@H]2O)c(=O)n1 [CYTARABINE] |  |  | yes | HCF HNR REACTIVATION_HVB MVO | 1 cure - 2 cures |  | 33 | 14 |  |  |  | 0 | 0 |  | 7 | 0 | 0 | 0 | Hepatotoxicity (moderate) ([1]; Liver): 75%; Hepatotoxicity (acute) ([2]; Liver): 28.6%; Hepatotoxicity (mechanism) ([6]; Liver): Dose-dependant; Hepatotoxicity (cytolytic) ([9]; Liver): 6; Hepatotoxicity (choleostasis) ([10]; Liver): 3; Hepatotoxicity (severe hepatitis) ([11]; Liver): 6; Hepatotoxicity (granulomatous hepatitis) ([14]; Liver): 0
11 | Cc1ccc(-c2nc3ccc(C)cn3c2CC(=O)N(C)C)cc1 [ZOLPIDEM] | 0.4 | 0 | yes | ENCEPHALOPATHIE | 1 day - 3 days | Dose-dependant | 3 | 2 | 2 | 0 | 0 | 0 | 0 | 0 | 0 | 0 | 0 | 0 | 
12 | CC1(C)S[C@@H]2[C@H](NC(=O)C(C(=O)O)c3ccccc3)C(=O)N2[C@H]1C(=O)O (stereo partly specified) [CARBENICILLIN] | 56 | 0.7 | yes | RC/TICARCILLINE | 4 days - 3 months | Dose-dependant | 13 | 5 | 5 | 0 | 0 | 0 | 0 | 0 | 0 | 0 | 0 | 0 | 
